Among the data in a melting point compilation (Tetko et al.; mined from patent text by program, amines drawn as free bases though some values may be those of a salt) are melting point values, retold here.

One may read the melting point as the temperature of the solid-liquid transition.

Take `COC(=O)CNc1ccc(OCc2ccccc2)cc1`: the melting point fell in the range of 106 to 107 °C.

`N#Cc1cccc(C=Cc2ccc(Cl)cc2)n1` displayed a melting point of 113 to 115 °C.

Compound `CN(C)Cc1nc(CO)nn1-c1ccc(Cl)cc1C(O)c1ccccc1` (stereo not drawn) yielded a melting point of 121 to 123 °C.

In turn, `O=c1c2ccccc2sc2ccc(N3CCOCC3)cc12` yielded a melting point of 166 to 167 °C.

With `Brc1cc(N2CCOCC2)ccc1/C=C/c1cc(/C=C/c2ccc3cc[nH]c3c2)[nH]n1`, the melting point was 143 to 148 °C.

Regarding `CN(C)C(=O)N1CCSC1c1ccccc1OCCN1CCN(c2cccc(F)c2)CC1` (stereo not drawn), the melting point was 90.5 to 93 °C.

`NS(=O)(=O)c1cccc(-c2cc(-c3nc(-c4ccc(F)c(F)c4)cc(C(F)(F)F)n3)ccn2)c1` had a melting point of 234 °C.

Turning to `CN1CC2=C(n3cnc(C#CC(C)(C)O)c3C1)S(=O)C=C2` (stereo not drawn), the melting point fell in the range of 180 to 181 °C.

Turning to `C=C1c2cnccc2CC(=O)c2ccccc21`, the melting point lay within 98 to 110 °C.

On to `COC(C)(C)OCC(C)C1CCC2C3C=CC4=CC(=O)C5OC5C4(C)C3CCC12C` (stereo not drawn), for which the melting point lay in the range of 150 to 151 °C.

Turning to `COC(=O)[C@H](O)[C@@H](NS(=O)(=O)c1ccc([N+](=O)[O-])cc1)c1ccccc1`, the melting point lay in the range of 187 to 189 °C.

The compound `O=C1NC(=C2CCC2)Sc2ccccc21` showed a melting point of 147 to 149 °C.

With `CC(=O)Nc1nc(C)c(S(=O)(=O)n2c(CCCC(=O)O)cc3cc(Cl)ccc32)s1`, the melting point was in the range of 231 to 233 °C.

As for `Cc1ccccc1C=C1CSCC(=Cc2ccccc2C)C1=O`, the melting point lay within 123 to 125 °C.

Turning to `CCCc1c(OCCCCCc2ccc3cc(O)c(O)cc3c2)ccc(C(=O)O)c1O`, the melting point fell in the range of 165 to 167 °C.

The compound `CCCCc1nc(CO)c(S(=O)(=O)CC)n1Cc1ccc(-c2ccccc2C(=O)O)cc1` returned a melting point of 210 °C.

Regarding `NS(=O)(=O)c1c(Cl)cccc1Cn1cncn1`, the melting point fell in the range of 175 to 178 °C.

Consider `CCCCc1nc2ccccc2n1Cc1ccc(C(=O)O)c(C)c1`, for which the melting point is 191 to 192 °C.

`NS(=O)(=O)c1cc(C(=O)O)cc(N2CCCC2=O)c1Oc1ccccc1`: the melting point lay within 282 to 285 °C.

In the case of `CC12CCC3c4cc(C=O)c(O)cc4CCC3C1CCC2O` (stereo not drawn), the melting point was 219 to 221 °C.

In the case of `CC(=O)c1cc(Cl)c(O)c2ncccc12`, the melting point fell in the range of 163 to 166 °C.

In the case of `FC1(F)N=c2cc3c(cc2=N1)OC(Cl)O3`, the melting point was > 220 °C.

`CN(C)CCCC(C(N)=O)c1ccccc1-c1ccccc1` (stereo not drawn): the melting point fell in the range of 108 to 110 °C.

As to `O=c1[nH]nc2cc(C(c3c(F)ccc(F)c3F)S(=O)(=O)CCC(F)(F)F)c(Cl)cn12` (stereo not drawn), the melting point is 209 to 211 °C.

On to `CCS(=O)(=O)c1cc(OC)c(OC)c(C(=O)NCC2CCCN2CC2CC2)c1` (stereo not drawn), for which the melting point was 167 to 170 °C.

Turning to `Clc1nc(-c2ccccn2)[nH]c1I`, the melting point is 188 to 189 °C.

`O=C1C2=C(C(=O)N1CCO)c1ccccc1CC2`: the melting point was 120 to 121 °C.

In turn, `CC(C)c1nc(Cc2ccccc2)c2c(c1O)COC2` gave a melting point of 232 to 233 °C.

`N#Cc1c(N2CCCCC2)cc(-c2ccc(F)cc2)c2c1C(=O)c1ccccc1-2` registered a melting point of 152 to 154 °C.

Consider `O=C(c1ccc(F)cc1)c1ccc(-c2ccccc2)cc1`, for which the melting point came out at 149 °C.

Compound `CCOC(=O)C=Cc1ccc(Oc2c(-c3ccc(OC)cc3)ccc3cc(OC)ccc23)cc1` had a melting point of 94 to 97 °C.

The compound `COC(=S)NCc1cn(-c2ccc(N3CCC(=O)CC3)c(F)c2)nn1` yielded a melting point of 145 to 147 °C.

`O=C1c2ccccc2C(=O)N1CCCSc1ncco1` had a melting point of 101 °C.

Turning to `COc1ccc(C=C(C)C(=O)O)cc1F`, the melting point is 167 to 169 °C.

The compound `CCCCC[C@H]1CC[C@H](CSc2cc(O)c3c(c2N)C(=O)c2ccccc2C3=O)CC1` yielded a melting point of 129 to 130 °C.

As for `COC(=O)CCCCNC(=O)C(CO)NS(=O)(=O)c1ccc(Cl)cc1` (racemic), the melting point was in the range of 92 to 94 °C.

Compound `CCC(CC)Cn1c(=O)c(=O)[nH]c2cc(Cl)ccc21` displayed a melting point of 253 to 255 °C.

The compound `Cc1cccc(-c2cnn(-c3ccnc(-c4ccc(CN5CCOCC5)cc4)c3)c2)n1` showed a melting point of 128 °C.

`CC(=O)OCC1OC(SCCCc2ccccc2)C(OC(C)=O)C(OC(C)=O)C1OC(C)=O` (stereo not drawn) came in with a melting point of 73 to 74 °C.

Regarding `C=CCN1CC(OC(=O)c2ccccc2)CC1=O` (stereo not drawn), the melting point is 56 to 67 °C.

With `CC(=O)CCCn1c(C)nc2c(N)nc3ccccc3c21`, the melting point was 194 to 196 °C.

Consider `CCCCCCCCCCCCSc1nnn[nH]1`, for which the melting point was 85 to 87 °C.

Turning to `CNC(=S)NS(=O)(=O)c1cc(CCNC(=O)C=Cc2cccs2)ccc1OCC1CCCCO1` (stereo not drawn), the melting point is 80 °C.

`Cc1cc(NS(C)(=O)=O)cc(C)c1S(=O)(=O)C[N+](=O)[O-]`: the melting point was 138 to 140 °C.

As for `CCc1nn(C2CCCC2)c(NC(=O)c2ccnc3ccccc23)c1C#N`, the melting point was in the range of 156 to 161 °C.

Regarding `CN(C)CCN1C(=O)c2cscc2N(C)c2ncccc21`, the melting point is 129 to 130 °C.

`O=C1CNC(=O)C(CCCCNC(=O)OCc2ccccc2)N1` (stereo not drawn) had a melting point of 210 °C.

Consider `NC1=NC(c2cccc(-c3cccnc3F)c2)(c2ccc3c(c2)OC(F)(F)O3)C2=NCCCN12` (stereo not drawn), for which the melting point is 95 to 99 °C.

`CC(C)(CO)Nc1nc(-c2ccc(Br)cc2)cs1` had a melting point of 151 to 153 °C.

The compound `O=c1c2c(n(-c3ccccc3)c3ncccc13)OC(CI)C2` (stereo not drawn) returned a melting point of 178 to 180 °C.

Take `CCCCCC1CCc2cc(C(N)=O)ccc2C1` (stereo not drawn): the melting point lay in the range of 166 to 168 °C.

On to `CCCCC(C)(Cc1ccc(OCCNC(=O)c2ccc(-c3ccccn3)cc2)cc1)C(=O)O` (stereo not drawn), for which the melting point was 106 to 108 °C.

In turn, `CCOC(=O)C1=C(C)NC(=S)N(C(=O)OCC)C1c1cccc(C)c1` (stereo not drawn) had a melting point of 93 to 95 °C.

Compound `c1cc(CN2CCOCC2)cc(-n2cnc3cc(-c4ccoc4)cnc32)c1` displayed a melting point of 182 to 184 °C.

In the case of `COc1cc([N+](=O)[O-])ccc1N1CCN(CCCNc2c(C)c(=O)n(C)c(=O)n2C)CC1`, the melting point was in the range of 131 to 133 °C.

Take `COC(=O)CCn1c(=O)n2n(c1=O)C(C(=O)O)C=CC2` (stereo not drawn): the melting point lay in the range of 150 to 153 °C.

On to `O=C(NC(=O)C(c1ccccc1)c1ccccc1)OCCN1CCOCC1`, for which the melting point is 135 to 137 °C.

In turn, `CCN1C(=O)CCCc2c1ccc(Nc1ncc(Cl)c(N[C@@H]3CCC[C@H]3NS(C)(=O)=O)n1)c2OC` (relative stereo) came in with a melting point of 141 °C.

Compound `Cc1oc(-c2ccccc2)nc1COc1ccc(Cn2cc(CCC(=O)O)c(-c3ccc(F)cc3)n2)cc1` had a melting point of 139 to 140 °C.

In the case of `Cc1ccc(C(=O)Nc2ccc(CN3CCCCC3)c(C(F)(F)F)c2)cc1Br`, the melting point is 151 to 153 °C.

On to `CCSCCCN(C)c1c(S(=O)(=O)C(F)(F)F)c(C#N)nn1-c1c(Cl)cc(C(F)(F)F)cc1Cl`, for which the melting point is 89 °C.

Compound `Cn1ccc(C(=O)c2ccc(Cc3ccc(F)cc3)o2)c(O)c1=O` had a melting point of 145 to 147 °C.

Consider `CC(C)(C)OC(=O)[C@@H]1CCCN2C(=O)CC[C@H](NC(=O)OCC3c4ccccc4-c4ccccc43)C(=O)N12`, for which the melting point lay in the range of 190 to 192 °C.
